Measurements reported in patent US20250127904A1, “SIGLEC LIGANDS, CONJUGATES, AND METHODS OF USE THEREOF” (Osprey Biopharmaceuticals, Inc., priority 2023, published 2025).

Experiments:
[1] = biological target: T1, biotinylated mouse siglec-2-Fc-Avi (Mus musculus, UniProt P35329); assay: SPR binding to mouse siglec-2/CD22; details: steady-state analysis, read-out: Mouse CD22 affinity
T1 construct: made in house
T1 sequence (P35329 22-708 limits assumed): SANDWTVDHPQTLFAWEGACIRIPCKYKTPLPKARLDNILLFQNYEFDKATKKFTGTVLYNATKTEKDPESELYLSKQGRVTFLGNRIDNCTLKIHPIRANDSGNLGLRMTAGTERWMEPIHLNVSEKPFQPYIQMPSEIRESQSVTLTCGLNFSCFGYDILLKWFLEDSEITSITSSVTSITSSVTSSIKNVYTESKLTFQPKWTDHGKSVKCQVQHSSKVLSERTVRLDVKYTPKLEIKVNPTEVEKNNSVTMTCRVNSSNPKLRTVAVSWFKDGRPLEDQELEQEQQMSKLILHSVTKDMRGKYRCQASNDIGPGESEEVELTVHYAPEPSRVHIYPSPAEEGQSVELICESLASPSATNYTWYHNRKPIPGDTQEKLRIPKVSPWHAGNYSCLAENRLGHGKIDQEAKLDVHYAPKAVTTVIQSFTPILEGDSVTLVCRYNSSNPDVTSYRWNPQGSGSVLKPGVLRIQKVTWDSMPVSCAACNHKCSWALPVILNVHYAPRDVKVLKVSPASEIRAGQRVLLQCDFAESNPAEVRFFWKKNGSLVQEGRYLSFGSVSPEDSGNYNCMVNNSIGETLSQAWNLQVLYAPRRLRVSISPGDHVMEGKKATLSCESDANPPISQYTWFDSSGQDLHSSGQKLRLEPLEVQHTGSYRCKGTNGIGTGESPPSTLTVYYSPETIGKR
Experimental: (§1) The following proteins were used for CD22 ligand binding: biotinylated human siglec-2/CD22 protein-His-Avitag (Acro Biosystems, Cat #SI2-H82E3), biotinylated mouse siglec-2-Fc-Avi (in-house production), and recombinant cynomolgus siglec-2/CD22 His-tag (R&D systems, Cat #9864-SL-050). Prior to immobilization, CD22 proteins were treated with SialoExo (Genovis, Cat #G1-SM1-020) for 4 hours at 37° C. to remove native sialic acid residues.
(§2) Capture of biotinylated CD22 constructs was performed using a Cytiva SA chip (BR100398) on a Biacore 8K instrument. Human siglec 2 was immobilized on channels 1-4 and mouse siglec 2 on channels 5-8 on the active flow cell (2) and the reference flow cell (1) was immobilized with biotinylated human FGFR2 Fc Avi, an unrelated protein, to account for any nonspecific binding. Human siglec 2 and Mouse siglec 2 were diluted in running buffer to 20 μg/mL and injected on the active flow cell (2) for 300 seconds at 5 μL/min, yielding about 3500 RU of captured constructs.
(§3) Binding experiments of siglec-ligand conjugated proteins or Siglec ligand compounds were performed on the surfaces prepared above in 10 mM HEPES, 150 mM NaCl, 0.05% Tween-20, pH 7.5, 1% DMSO as the running buffer. Compounds were serially diluted in running buffer from 50 μM to 97.6 nM and injected over both the reference and active flow cells for 90 seconds at 30 μL/min. The compounds were then allowed to dissociate from the surface for 120 seconds. No regeneration was required as the compounds completely dissociated from the surface after 30 seconds. Solvent correction was performed using 0.5, 1, 1.5, and 2% DMSO spike into running buffer without DMSO. Data was analyzed using steady-state analysis in Biacore Insight Evaluation Software, version 3.0.

[2] = biological target: T2, biotinylated human siglec-2/CD22 protein-His-Avitag (Homo sapiens, UniProt P20273); assay: SPR binding to human siglec-2/CD22; details: steady-state analysis, read-out: Human CD22 affinity
T2 construct: purchased Acro Biosystems SI2-H82E3
T2 sequence (P20273 20-847): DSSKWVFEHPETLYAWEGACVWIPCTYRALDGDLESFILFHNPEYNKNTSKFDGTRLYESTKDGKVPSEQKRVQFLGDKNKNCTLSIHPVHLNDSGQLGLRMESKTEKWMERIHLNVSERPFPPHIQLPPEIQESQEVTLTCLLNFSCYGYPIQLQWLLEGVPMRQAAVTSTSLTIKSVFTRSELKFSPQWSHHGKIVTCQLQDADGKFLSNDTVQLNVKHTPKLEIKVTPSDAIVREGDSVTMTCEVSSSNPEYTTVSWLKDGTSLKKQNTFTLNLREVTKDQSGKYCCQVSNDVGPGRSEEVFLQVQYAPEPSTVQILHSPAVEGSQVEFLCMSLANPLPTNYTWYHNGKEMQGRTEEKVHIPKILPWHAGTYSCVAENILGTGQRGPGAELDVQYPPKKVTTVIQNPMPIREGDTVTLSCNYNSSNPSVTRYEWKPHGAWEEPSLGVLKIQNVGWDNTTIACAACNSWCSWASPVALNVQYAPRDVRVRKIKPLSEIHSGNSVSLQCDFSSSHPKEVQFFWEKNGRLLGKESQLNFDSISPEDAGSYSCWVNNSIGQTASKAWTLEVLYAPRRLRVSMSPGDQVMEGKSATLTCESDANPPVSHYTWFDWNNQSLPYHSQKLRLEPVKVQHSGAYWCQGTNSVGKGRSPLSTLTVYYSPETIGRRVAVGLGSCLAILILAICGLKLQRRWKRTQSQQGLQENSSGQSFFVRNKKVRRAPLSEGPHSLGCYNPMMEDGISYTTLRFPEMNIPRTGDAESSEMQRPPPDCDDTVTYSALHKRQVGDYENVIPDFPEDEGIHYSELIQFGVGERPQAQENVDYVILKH
Experimental: as §1, §2, §3

[3] = biological target: recombinant cynomolgus siglec-2/CD22 His-tag (Macaca fascicularis, UniProt A0A2K5WCZ6); assay: SPR binding to cynomolgus siglec-2/CD22; details: steady-state analysis, read-out: Cyno CD22 affinity
Experimental: as §1
Surface preparation for cyno CD22 protein consisted of amine coupling to Cytiva CM5 chip (Cytiva, Cat #BR100530) using the Cytiva amine coupling kit Type 2 (Cytiva, Cat #BR100633). Following the standard amine coupling protocols, EDC and NHS from the kit were mixed 1:1 and injected over flow cells 1 and 2. Cyno CD22 was then immobilized by injecting 10 μg/mL in Sodium Acetate, pH 5.5 onto flow cell (2) for 420 seconds at 10 uL/min, yielding approximately 2500 RU of captured protein. Any active carboxy groups were then capped with 1M Ethanolamine, pH 8.5 for 420 s on flow cells 1 and 2.
as §3

recombinant cynomolgus siglec-2/CD22 His-tag, sequence (A0A2K5WCZ6 entry or part of it): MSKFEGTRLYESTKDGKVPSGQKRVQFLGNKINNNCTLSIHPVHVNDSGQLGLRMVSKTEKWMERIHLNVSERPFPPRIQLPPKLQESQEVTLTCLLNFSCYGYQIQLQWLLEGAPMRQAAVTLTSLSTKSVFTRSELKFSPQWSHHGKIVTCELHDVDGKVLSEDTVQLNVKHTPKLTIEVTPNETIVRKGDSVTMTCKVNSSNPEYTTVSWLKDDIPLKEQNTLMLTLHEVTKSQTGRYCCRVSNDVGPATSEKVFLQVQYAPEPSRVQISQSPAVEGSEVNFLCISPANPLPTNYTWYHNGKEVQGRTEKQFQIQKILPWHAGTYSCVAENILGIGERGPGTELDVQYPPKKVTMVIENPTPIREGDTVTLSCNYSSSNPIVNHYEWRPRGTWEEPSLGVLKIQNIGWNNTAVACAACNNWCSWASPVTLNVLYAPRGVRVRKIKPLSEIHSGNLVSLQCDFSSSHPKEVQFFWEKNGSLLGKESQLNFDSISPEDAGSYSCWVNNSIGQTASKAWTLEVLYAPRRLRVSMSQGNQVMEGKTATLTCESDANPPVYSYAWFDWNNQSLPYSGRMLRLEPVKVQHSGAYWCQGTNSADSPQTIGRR

Kd [1]	Kd [2]	Kd [3]	Compound
< 1 µM	< 1 µM	< 1 µM	C#Cc1ccc(CC(=O)NC[C@@H](O)[C@@H](O)[C@@H]2O[C@@](OCCCCCCc3cn(CCOCCOC)nn3)(C(=O)O)C[C@H](O)[C@H]2NC(=O)CO)cc1 [Compound 27, (2R,4S,5R,6R)-6-((1R,2R)-3-(2-(4-ethynylphenyl)acetamido)-1,2-dihydroxypropyl)-4-hydroxy-5-(2-hydroxyacetamido)-2-((6-(1-(2-(2-methoxyethoxy)ethyl)-1H-1,2,3-triazol-4-yl)hexyl)oxy)tetrahydro-2H-pyran-2-carboxylic acid]
< 1 µM	< 1 µM	< 1 µM	C#Cc1ccc(CC(=O)NC[C@@H](O)[C@@H](O)[C@@H]2O[C@@](OCCCCCCn3cc(COCCOC)nn3)(C(=O)O)C[C@H](O)[C@H]2NC(=O)CO)cc1 [Compound 28, (2R,4S,5R,6R)-6-((1R,2R)-3-(2-(4-ethynylphenyl)acetamido)-1,2-dihydroxypropyl)-4-hydroxy-5-(2-hydroxyacetamido)-2-((6-(4-((2-methoxyethoxy)methyl)-1H-1,2,3-triazol-1-yl)hexyl)oxy)tetrahydro-2H-pyran-2-carboxylic acid]
1 to 10 µM	< 1 µM	< 1 µM	CCCNC(=O)CCOCCOCCOCCOCCn1cc(-c2ccc(CC(=O)NC[C@@H](O)[C@@H](O)[C@@H]3O[C@@](OCCCCCCNc4c(NCCOC)c(=O)c4=O)(C(=O)O)C[C@H](O)[C@H]3NC(=O)CO)cc2)nn1 [Compound 53, (2R,4S,5R,6R)-6-((1R,2R)-1,2-dihydroxy-3-(2-(4-(1-(15-oxo-3,6,9,12-tetraoxa-16-azanonadecyl)-1H-1,2,3-triazol-4-yl)phenyl)acetamido)propyl)-4-hydroxy-5-(2-hydroxyacetamido)-2-((6-((2-((2-methoxyethyl)amino)-3,4-dioxocyclobut-1-en-1-yl)amino)hexyl)oxy)tetrahydro-2H-pyran-2-carboxylic acid]
1 to 10 µM	1 to 10 µM	1 to 10 µM	CCCNC(=O)CCOCCOCCOCCOCCn1cc(-c2ccc(CC(=O)NC[C@@H](O)[C@@H](O)[C@@H]3O[C@@](OCCCCCCOC)(C(=O)O)C[C@H](O)[C@H]3NC(=O)CO)cc2)nn1 [Compound 52, (2R,4S,5R,6R)-6-((1R,2R)-1,2-dihydroxy-3-(2-(4-(1-(15-oxo-3,6,9,12-tetraoxa-16-azanonadecyl)-1H-1,2,3-triazol-4-yl)phenyl)acetamido)propyl)-4-hydroxy-5-(2-hydroxyacetamido)-2-((6-methoxyhexyl)oxy)tetrahydro-2H-pyran-2-carboxylic acid]
< 1 µM	< 1 µM	1 to 10 µM	C#Cc1ccc(CC(=O)NC[C@@H](O)[C@@H](O)[C@@H]2O[C@@](OCc3ccccc3)(C(=O)O)C[C@H](O)[C@H]2NC(=O)CO)cc1 [Compound 1, (2R,4S,5R,6R)-2-(benzyloxy)-6-((1R,2R)-3-(2-(4-ethynylphenyl)acetamido)-1,2-dihydroxypropyl)-4-hydroxy-5-(2-hydroxyacetamido)tetrahydro-2H-pyran-2-carboxylic acid]
1 to 10 µM	1 to 10 µM	1 to 10 µM	C#CCO[C@H]1C[C@](OCc2ccccc2)(C(=O)O)O[C@@H]([C@H](O)[C@H](O)CNC(=O)Cc2ccc(Cl)cc2)[C@@H]1NC(=O)CO [Compound 18, (2R,4S,5R,6R)-2-(benzyloxy)-6-((1R,2R)-3-(2-(4-chlorophenyl)acetamido)-1,2-dihydroxypropyl)-5-(2-hydroxyacetamido)-4-(prop-2-yn-1-yloxy)tetrahydro-2H-pyran-2-carboxylic acid]
< 1 µM	< 1 µM	< 1 µM	C#Cc1ccc(CC(=O)NC[C@@H](O)[C@@H](O)[C@@H]2O[C@@](SCc3ccccc3)(C(=O)O)C[C@H](O)[C@H]2NC(=O)CO)cc1 [Compound 12, (2S,4S,5R,6R)-2-(benzylthio)-6-((1R,2R)-3-(2-(4-ethynylphenyl)acetamido)-1,2-dihydroxypropyl)-4-hydroxy-5-(2-hydroxyacetamido)tetrahydro-2H-pyran-2-carboxylic acid]
1 to 10 µM	< 1 µM	1 to 10 µM	CCCNC(=O)CCOCCOCCOCCOCCn1cc(-c2ccc(CC(=O)NC[C@@H](O)[C@@H](O)[C@@H]3O[C@@](OCCCCCCn4cc(COCCOC)nn4)(C(=O)O)C[C@H](O)[C@H]3NC(=O)CO)cc2)nn1 [Compound 55, (2R,4S,5R,6R)-6-((1R,2R)-1,2-dihydroxy-3-(2-(4-(1-(15-oxo-3,6,9,12-tetraoxa-16-azanonadecyl)-1H-1,2,3-triazol-4-yl)phenyl)acetamido)propyl)-4-hydroxy-5-(2-hydroxyacetamido)-2-((6-(4-((2-methoxyethoxy)methyl)-1H-1,2,3-triazol-1-yl)hexyl)oxy)tetrahydro-2H-pyran-2-carboxylic acid]
1 to 10 µM	1 to 10 µM	1 to 10 µM	C#CCOCCOCCOc1ccc(CC(=O)NC[C@@H](O)[C@@H](O)[C@@H]2O[C@@](OCc3ccccc3)(C(=O)O)C[C@H](O)[C@H]2NC(=O)CO)cc1 [Compound 15, (2R,4S,5R,6R)-2-(benzyloxy)-6-((1R,2R)-1,2-dihydroxy-3-(2-(4-(2-(2-(prop-2-yn-1-yloxy)ethoxy)ethoxy)phenyl)acetamido)propyl)-4-hydroxy-5-(2-hydroxyacetamido)tetrahydro-2H-pyran-2-carboxylic acid]
> 10 µM	1 to 10 µM	1 to 10 µM	C#CCOCCOCCOCCC(=O)N[C@H]1[C@H]([C@H](O)[C@H](O)CNC(=O)Cc2ccc(Cl)cc2)O[C@@](OCc2ccccc2)(C(=O)O)C[C@@H]1O [Compound 21, (2R,4S,5R,6R)-2-(benzyloxy)-6-((1R,2R)-3-(2-(4-chlorophenyl)acetamido)-1,2-dihydroxypropyl)-4-hydroxy-5-(3-(2-(2-(prop-2-yn-1-yloxy)ethoxy)ethoxy)propanamido)tetrahydro-2H-pyran-2-carboxylic acid]
